PubChem BioAssay AID248 (DTP/NCI, 2004)
Toxic doses and inconclusive results are not listed. No stated cut-off is given here; in the data, active means T/C of 150% or more; inactive means T/C below 125%.

System: L1210 leukemia ip in BDF1 mice, survival T/C
Experiment: NCI In Vivo Anticancer Drug Screen. Data for tumor model L1210 Leukemia (intraperitoneal) in B6D2F1 (BDF1) mice
Settings: endpoint: mean survival time, higher = longer survival
In short: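 Read-out is survival time, reported as the treated-group measurement over the vehicle-control measurement.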

Measured: T/C

CNC(=N)c1ccc(NC(=N)c2ccc(NC(=N)c3ccc(NC(=N)c4ccc(C(=N)NC)cc4)cc3)cc2)cc1
inactive: dose: 4.4 mg/kg/injection, schedule: Q01DX015 (sc), vehicle: water 102 % of control | dose: 5.5 mg/kg/injection, schedule: Q01DX Z (ip), vehicle: water 116 % of control | dose: 6.7 mg/kg/injection, schedule: Q01DX015 (sc), vehicle: water 107 % of control | dose: 7.5 mg/kg/injection, schedule: Q01DX001 (ip), vehicle: water 104 % of control | dose: 10.0 mg/kg/injection, schedule: Q01DX015 (sc), vehicle: water 112 % of control | dose: 15.0 mg/kg/injection, schedule: Q01DX001 (ip), vehicle: water 106 % of control | dose: 30.0 mg/kg/injection, schedule: Q01DX001 (ip), vehicle: water 106 % of control | dose: 44.0 mg/kg/injection, schedule: Q01DX Z (ip), vehicle: water 100 % of control
active: dose: 16.0 mg/kg/injection, schedule: Q01DX015 (ip), vehicle: water 216 % of control | dose: 22.0 mg/kg/injection, schedule: Q01DX Z (ip), vehicle: water 191 % of control | dose: 22.5 mg/kg/injection, schedule: Q01DX015 (sc), vehicle: water 184 % of control

O=C(O)c1cccc(CBr)c1CBr
inactive: dose: 6.25 mg/kg/injection, schedule: Q01DX001 (ip), vehicle: saline with Tween-80 97 % of control | dose: 6.25 mg/kg/injection, schedule: Q01DX009 (ip), vehicle: saline with Tween-80 93 % of control | dose: 12.5 mg/kg/injection, schedule: Q01DX001 (ip), vehicle: saline with Tween-80 96 % of control | dose: 12.5 mg/kg/injection, schedule: Q01DX009 (ip), vehicle: saline with Tween-80 96 % of control | dose: 25.0 mg/kg/injection, schedule: Q01DX001 (ip), vehicle: saline with Tween-80 100 % of control

CCC1=NS(=O)(=O)c2c(ncn2C)N1
inactive: dose: 100.0 mg/kg/injection, schedule: Q04DX003 (ip), vehicle: other 97 % of control | dose: 200.0 mg/kg/injection, schedule: Q04DX003 (ip), vehicle: other 97 % of control | dose: 400.0 mg/kg/injection, schedule: Q04DX003 (ip), vehicle: other 103 % of control

O=C(NC/C(Br)=C/Br)C(F)(F)F
inactive: dose: 100.0 mg/kg/injection, schedule: Q01DX001 (ip), vehicle: Klucel (hydroxypropylcellulose) (HPC) 113 % of control | dose: 100.0 mg/kg/injection, schedule: Q04DX003 (ip), vehicle: Klucel (hydroxypropylcellulose) (HPC) 90 % of control | dose: 200.0 mg/kg/injection, schedule: Q01DX001 (ip), vehicle: Klucel (hydroxypropylcellulose) (HPC) 105 % of control | dose: 200.0 mg/kg/injection, schedule: Q04DX003 (ip), vehicle: Klucel (hydroxypropylcellulose) (HPC) 88 % of control | dose: 400.0 mg/kg/injection, schedule: Q01DX001 (ip), vehicle: Klucel (hydroxypropylcellulose) (HPC) 105 % of control | dose: 400.0 mg/kg/injection, schedule: Q04DX003 (ip), vehicle: Klucel (hydroxypropylcellulose) (HPC) 90 % of control

C=C(C)C(=O)OCC1CO1 (stereo not drawn)
inactive: dose: 50.0 mg/kg/injection, schedule: Q01DX Z (ip), vehicle: other 90 % of control | dose: 100.0 mg/kg/injection, schedule: Q01DX Z (ip), vehicle: other 95 % of control | dose: 200.0 mg/kg/injection, schedule: Q01DX Z (ip), vehicle: other 107 % of control

CCCCCCCCCCCCNC1=C(Cl)C(=O)c2ccccc2C1=O
inactive: dose: 1.0 mg/kg/injection, schedule: Q01DX Z (ip), vehicle: methylcellulose (MC) 94 % of control | dose: 2.2 mg/kg/injection, schedule: Q01DX Z (ip), vehicle: methylcellulose (MC) 89 % of control

CC(C)NC(=O)C1C2C=CC(CC2)C1C(=O)NC(C)C (stereo not drawn)
inactive: dose: 100.0 mg/kg/injection, schedule: Q04DX003 (ip), vehicle: saline with Tween-80 100 % of control | dose: 200.0 mg/kg/injection, schedule: Q04DX003 (ip), vehicle: saline with Tween-80 92 % of control | dose: 400.0 mg/kg/injection, schedule: Q04DX003 (ip), vehicle: saline with Tween-80 104 % of control

Clc1ccc(/C=C/c2ccccn2)c(Cl)c1
inactive: dose: 100.0 mg/kg/injection, schedule: Q04DX002 (ip), vehicle: gum acacia 109 % of control | dose: 200.0 mg/kg/injection, schedule: Q04DX002 (ip), vehicle: gum acacia 95 % of control | dose: 400.0 mg/kg/injection, schedule: Q04DX002 (ip), vehicle: gum acacia 87 % of control

O/N=C\C[n+]1cc2ccccc2cc1/C=N\O
inactive: dose: 25.0 mg/kg/injection, schedule: Q01DX009 (ip), vehicle: saline 97 % of control | dose: 50.0 mg/kg/injection, schedule: Q01DX009 (ip), vehicle: saline 97 % of control | dose: 100.0 mg/kg/injection, schedule: Q01DX009 (ip), vehicle: saline 104 % of control | dose: 100.0 mg/kg/injection, schedule: Q04DX003 (ip), vehicle: saline 98 % of control

CCC1CN1P1(=O)OCC(CC)([N+](=O)[O-])CO1 (stereo not drawn)
inactive: dose: 100.0 mg/kg/injection, schedule: Q01DX001 (ip), vehicle: carboxymethylcellulose (CMC) 90 % of control | dose: 200.0 mg/kg/injection, schedule: Q01DX001 (ip), vehicle: carboxymethylcellulose (CMC) 101 % of control | dose: 400.0 mg/kg/injection, schedule: Q01DX001 (ip), vehicle: carboxymethylcellulose (CMC) 97 % of control
